We go through 18 compounds from PubChem BioAssay (NCI).

Holding throughout (experiment): NCI tumour cell line growth inhibition, 48 h
The subject of assay [1] is HCT-15 colon.
Assay [2] has as its system UACC-257 melanoma.
Assay [3] relates to SK-MEL-2 melanoma.
The test system of assay [4] is CAKI-1 renal.
For assay [5], the system named is LOX IMVI melanoma.
For assay [6], the system named is NCI-H460 lung.
Assay [7] relates to SNB-19 CNS.
Assay [8] has as its system SK-MEL-28 melanoma.
For assay [9], the system named is SW-620 colon.

Structures are written as SMILES.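 Five compound concentrations were applied to cells in 96-well plates for 48 hours; endpoints were derived by simple linear interpolation of the resulting dose-response curve. Abbreviation: GI50, concentration required for 50% inhibition of growth. TGI denotes the concentration required for complete inhibition of growth.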 Where a SMILES comes first, the peptide text is derived from it. [ ]: non-standard residue; d: D form. The star is where a group is joined. ξ: configuration not given here. 4Abz = Nc1ccc(C(=O)O)cc1; ξL = CC(C)CC(N)C(=O)O; NHOH = ON* A value given as a limit tells only on which side of the number the result lay.

With `COC(=O)C(=O)C(C(=O)C(=O)Nc1ccc(Cl)cc1Cl)c1nc2ccc(Cl)cc2[nH]c1=O` (stereo not drawn), the TGI in [1], in assay [2], in [3], in assay [4], in assay [5] and in [6] was > 100 µM throughout. For the same compound, the TGI in [7], in [8] and in [9] was > 100 µM in each case.

For `CC(C)CCC[C@@H](C)C1CCC2[C@@H]3CC=C4C[C@@H](OC(=O)CCC(=O)NCC[N+](C)(C)CCCS(=O)(=O)[O-])CC[C@]4(C)C3CC[C@@]21C` (stereo partly drawn), the TGI in assay [1] was 29.5 µM; in [2], 48.8 µM; in assay [3], 34.9 µM; in assay [4], > 100 µM; in [5] it was 33.1 µM; in assay [6], 30.9 µM. Further, the TGI in assay [7] was 44.7 µM; in [8] it was 32.9 µM; in [9] it was 33.8 µM.

As for `Cc1cc(C)c(-c2noc(-c3ccc(Cl)cc3)c2C2=NCCN2)c(C)c1`, the TGI was 57.4 µM in assay [1]; 34 µM in [2]; 43.8 µM in assay [3]; > 100 µM in [4]; 42.9 µM in [5]; 32.1 µM in [6]. For the same compound, the TGI in [7] is > 100 µM; in assay [8] it was 36.9 µM; in assay [9], > 100 µM.

For `Cn1c(=O)c(C2c3ccccc3Oc3c2c(=O)n(C)c2ccccc32)c(O)c2ccccc21` (stereo not drawn), the TGI in [1] was > 100 µM; in assay [2], 73.7 µM; in assay [3], > 100 µM; in [4], > 100 µM; in assay [5], > 100 µM; in assay [6] it was > 100 µM. Besides, the TGI in assay [7], in assay [8] and in assay [9] was > 100 µM in each case.

As for `O=C(CC1Sc2ccccc2NC1=O)Nc1ccc([N+](=O)[O-])cc1[N+](=O)[O-]` (stereo not drawn), the TGI in assay [2] worked out at 46.2 µM; in assay [3], 46.5 µM; in assay [5] it was 30.1 µM; in assay [6], 59.5 µM; in [7] it was 40.7 µM; in assay [8], 31.8 µM. The same compound had a TGI in assay [9] of 32.4 µM.

On to `O=C1C=Cc2cc3ccccc3c3cccc1c23`, for which the GI50 in [1] was 3.21 µM; in assay [2], 4.29 µM; in [3] it was 27.6 µM; in assay [4], 2.51 µM; in [5], 2.87 µM; in assay [6], 3.37 µM. For the same compound, the GI50 in assay [7] was 8.51 µM; in assay [8], 10.5 µM; in assay [9] it was 5.22 µM. The TGI is 18.6 µM in [1]; 19.2 µM in assay [2]; > 100 µM in assay [3]; 7.1 µM in assay [4]; 12.2 µM in [5]; 11.6 µM in [6]. In addition, the TGI is > 100 µM in assay [7], > 100 µM in assay [8] and 72.9 µM in assay [9].

Regarding `CCC(C)CNC1=C(NC(C)=O)C(=O)c2ccccc2C1=O` (stereo not drawn), the TGI in assay [1], in assay [2], in [3], in [5], in [6] and in [7] was > 100 µM throughout. The TGI in assay [8] and in assay [9] was > 100 µM in each case.

With `N#CC1=C(N)NC(=S)NC1c1ccc(-c2ccc(-c3nc4ccccc4s3)cc2)o1` (stereo not drawn), the GI50 in assay [1] was 17.5 µM; in [2], 36.9 µM; in [3] it was 41 µM; in assay [4] it was 35.3 µM; in assay [5] it was 10.6 µM; in assay [6], 10.4 µM. The GI50 in [7] was > 50 µM; in assay [9], 37.5 µM. Further, the TGI in [1] is > 50 µM; in assay [2] it was > 50 µM; in assay [3], > 50 µM; in assay [4] it was > 50 µM; in [5], 22.8 µM; in assay [6], 25.2 µM. For the same compound, the TGI in assay [7] and in assay [9] was > 50 µM throughout.

Turning to `COc1ccccc1NC(=O)CC(=O)NNCC(=O)Nc1nc(-c2ccccc2)cs1`, the TGI in [5], in assay [6], in [7], in assay [8] and in assay [9] was > 100 µM each time.

Consider `COc1ccc(-n2cc(-c3ccc(Cl)cc3)[nH]c2=S)cc1Cl`, for which the GI50 is > 100 µM in assay [1]; > 100 µM in assay [2]; 82.1 µM in [3]; 24.3 µM in assay [4]; 94 µM in assay [5]; 50.5 µM in [6]. The GI50 in [7] is 20.1 µM; in [8] it was 36.5 µM; in assay [9], > 100 µM. Further, the TGI in assay [1] was > 100 µM; in [2], > 100 µM; in [3], > 100 µM; in [4], 56.7 µM; in assay [5], > 100 µM; in assay [6], > 100 µM. The TGI is 55 µM in assay [7], > 100 µM in assay [8] and > 100 µM in assay [9].

For the compound `COC(=O)CC[C@@H](NC(=O)C(C)NC(=O)COC1C(O)C(COC(=O)CCCCCCCCCCNC(=O)c2ccc([N+](=O)[O-])c3[nH]c4cc(Br)ccc4c(=O)c23)OC(OCc2ccccc2)C1NC(C)=O)C(N)=O` (stereo partly drawn), the TGI in assay [1], in assay [2], in assay [3], in assay [4], in assay [5] and in assay [6] was > 100 µM in each case. Also, the TGI in assay [7], in [8] and in assay [9] was > 100 µM each time.

Turning to `Cc1ccc(NC(=O)C(=O)C2C(=O)C3=C(CC2(C)C)NC2C=CC=CC2S3)c(C)c1` (stereo not drawn), the TGI in assay [1], in assay [2], in assay [3], in assay [4], in assay [5] and in [6] was > 100 µM each time. Besides, the TGI in assay [7], in assay [8] and in assay [9] was > 100 µM each time.

`CCOc1cccc2cccnc12`: the TGI in [2], in assay [5], in assay [6], in assay [7], in assay [8] and in [9] was > 100 µM each time.

In the case of `COC(=O)C1=C(SC)SC2(C(=O)OC)C3C=C(C)C4C(N13)C42C(=O)OC` (stereo not drawn), the TGI in [1], in assay [2], in assay [3], in assay [4], in assay [5] and in [6] was > 100 µM throughout. The TGI in [7], in assay [8] and in assay [9] was > 100 µM in each case.

On to `COc1cc(C=C2C(=O)OC(C)(C)OC2=O)cc(OC)c1OC`, for which the TGI in assay [1], in assay [2], in assay [3], in assay [4], in [5] and in assay [6] was > 100 µM in each case. Moreover, the TGI in assay [7], in assay [8] and in [9] was > 100 µM throughout.

On to `CC(C)CC(NC(=O)[C@@H]1CCCN1C(=O)CNC(=O)c1ccc(N)cc1)C(=O)N[C@H](C)C(=O)NO` (stereo partly drawn) (H-[4Abz]GP[ξL][dA]-{NHOH}), for which the GI50 in assay [1], in assay [2], in assay [3], in assay [4], in [5] and in assay [6] was > 100 µM throughout. The GI50 in [7], in [8] and in [9] was > 100 µM each time. Further, the TGI in assay [1], in [2], in assay [3], in assay [4], in assay [5] and in [6] was > 100 µM each time. Also, the TGI in [7], in [8] and in assay [9] was > 100 µM each time.

Regarding `O=C1c2cc(Br)ccc2-c2c1c1ccccc1c(=O)n2CCCCl`, the GI50 in [1] is 26.8 µM; in assay [2], 17.7 µM; in assay [3] it was 76.8 µM; in assay [4] it was 2.84 µM; in [5], 8.56 µM; in assay [6], 7.54 µM. The GI50 was 72.2 µM in assay [7] and 40.9 µM in assay [9]. Further, the TGI in assay [1] was > 100 µM; in [2] it was 95.7 µM; in [3], > 100 µM; in assay [4] it was 20.6 µM; in assay [5] it was 61.3 µM; in [6], > 100 µM. In addition, the TGI in assay [7] and in [9] was > 100 µM each time.

Consider `COc1ccc(-c2ccc(/C=N/n3cnn(CN4CCN(C)CC4)c3=S)o2)c([N+](=O)[O-])c1`, for which the GI50 in [1] was 16.7 µM; in [3], > 100 µM; in assay [5], 23.3 µM; in [6] it was 35.2 µM; in [7], 56.4 µM; in assay [8] it was 44.5 µM. In assay [9], the GI50 is 31.6 µM. In addition, the TGI is 37.5 µM in assay [1]; > 100 µM in assay [3]; 66.8 µM in [5]; > 100 µM in assay [6]; > 100 µM in assay [7]; > 100 µM in assay [8]. For the same compound, the TGI in assay [9] is > 100 µM.
